According to patent publication US7985745B2, “Method for pain treatment” (Abbott Laboratories, priority 2006, dated 2011):

Key:
[1] = test system: tactile allodynia; assay: Complete Freund's adjuvant model, tactile allodynia by von Frey filaments; format: in vivo, rat; conditions: 48 hours after CFA, mechanical stimulus
Protocol: In a separate method of assessing the effectiveness of representative compounds of the invention against hyperalgesia, animals were tested in the acute model of adjuvant-induced hyperalgesia using Complete Freund's Adjuvant (CFA) as described above, but in this case, tactile allodynia to a mechanical stimulus was measured using calibrated von Frey filaments (Stoelting, Wood Dale, Ill.). Animals were prepared as described above: a solution of Complete Freund's adjuvant (150 microliters of a 50% aqueous solution, Sigma Chemical Company, St. Louis, Mo.) was injected into the plantar surface of test paw of the animal (rat). Rats so injected develop a hyperalgesia to mechanical (touch) stimulation which is assessed 48 hours after injection of the Complete Freund's adjuvant. Withdrawal threshold was determined by increasing and decreasing stimulus intensity, and estimated using the Dixon's up-down method (Dixon, Annual Rev. Pharmacol. Toxicol. (1980) vol. 20, pp. 441-462; Chaplan et al. “Quantitative assessment of tactile allodynia in the rat paw” J. Neuroscience Methods (1994) vol. 53 pp. 55-63). Rats were placed into inverted individual plastic containers (20×12.5×20 cm) on top of a suspended wire mesh with a 1 cm^2 grid to provide access to the ventral side of the hind paws, and acclimated to the test chambers for 20 min. The von Frey filaments were presented perpendicularly to the plantar surface of the selected hind paw, and then held in this position for approximately 8 seconds with enough force to cause a slight bend in the filament. Positive responses included an abrupt withdrawal of the hind paw from the stimulus, or flinching behavior immediately following removal of the stimulus. Withdrawal threshold was determined using an up-down procedure (Dixon, Annual Rev. Pharmacol. Toxicol. (1980) vol. 20, pp. 441-462; Chaplan et al. “Quantitative assessment of tactile allodynia in the rat paw” J. Neuroscience Methods (1994) vol. 53 pp. 55-63). The strength of the maximum filament used for von Frey testing was 15.0 g.

[2] = test system: neuropathic pain; assay: Chung model: L5/L6 spinal nerve ligation, mechanical allodynia by von Frey filaments; format: in vivo, rat; conditions: 30 minutes before testing
Protocol: Animals were prepared for testing, by use of a surgical procedure that induces neuropathic pain in one paw. Male Sprague Dawley rats were purchased from Charles River (Portage, Mich.). Prior to surgery, animals were housed in groups and maintained in a temperature-regulated environment. Following nerve ligation surgery, animals were housed in groups, and had access to food and water ad libitum.
The L5 and L6 spinal nerves of anesthetized rats were tightly ligated in a manner described previously (see Kim and Chung, Pain (1992) vol. 50 pp. 355-363). An incision was made on the dorsal portion of the hip and the muscle was blunt-dissected to reveal the spinal processes. The L6 transverse process was removed, and the left side L5 and L6 spinal nerves were tightly ligated with 5.0 braided silk suture. The wound was cleaned, the membrane sewn with 4.0 dissolvable Vicryl suture and the skin closed with wound clips. The paw affected by the surgical procedure (the left paw) develops an allodynic response, a hypersensitivity to mechanical and other stimuli; neuropathic pain is assessed as an increased sensitivity in the surgically affected (left) allodynic paw compared to the control paw on the right side, and measured by comparing the response of the (left side) allodynic paw to the response of the unaffected right side control paw.
For the assessment of neuropathic pain, mechanical allodynia in the affected paw of animals that had undergone spinal nerve ligation was evaluated using testing with von Frey filaments. As described previously by S. R. Chaplan, et al (“Quantitative assessment of tactile allodynia in the rat paw” J. Neurosci. Meth. (1994) vol. 53 pp. 55-63), two weeks following surgery rats were acclimated to a testing box constructed of plexiglass with a wire mesh floor which allowed access to the plantar surface of the animal's hindpaws. Using an Up-Down method (Dixon, Annual Rev. Pharmacol. Toxicol. (1980) vol. 20, pp. 441-462; Chaplan et al. “Quantitative assessment of tactile allodynia in the rat paw” J. Neuroscience Methods (1994) vol. 53 pp. 55-63), von Frey filaments of increasing stiffness were applied to the plantar surface of the hindpaws and the withdrawal response of the animals was observed; for the surgically affected paw with neuropathic pain (the left side paw) the baseline level of allodynia has a withdrawal threshold of ≦4 g of pressure. By comparison, for the control paw without allodynia (in this case the right side paw), the typical withdrawal pressure is around 15 g. Representative compounds of the invention, administered intraperitoneally 30 minutes before testing, are able to reduce the symptoms of neuropathic pain and induce a dose-dependent increase in the withdrawal threshold for allodynic (left side) limb, up to a maximum effect of 15 g. The efficacy of the compound in reducing neuropathic pain at different doses is determined by comparing response in the surgery-affected paw versus the response in the control paw. This is expressed as the MPE (maximum percent effect), or 100 times the withdrawal threshold of the allodynic (left side) divided by the withdrawal threshold of the control (right side).

[3] = test system: mechanical allodynia after skin incision; assay: Surgical skin incision model, mechanical allodynia by von Frey hair; format: in vivo, rat
Protocol: This is a surgical skin incision model (Joshi, et al. Pain 123 (2006) 75-82). Animals (rats) were prepared for testing by subjecting them to a surgical procedure carried out under sterile conditions, where the plantaris muscle was elevated and incised longitudinally with the origin and insertion of the muscle remaining intact. The skin was then closed with two mattress sutures (e.g. 5-0 nylon sutures). After surgery, animals were allowed to recover on a warming plate and housed individually in cages with soft bedding. […] Animals were tested for mechanical allodynia using von Frey hair mechanical stimulation 2, 24, and 48 h after surgery as described for the Chung model.

[4] = test system: inflammatory pain; assay: Carrageenan-induced thermal hyperalgesia, hotbox assay; format: in vivo; conditions: 90 minutes after carrageenan, tested 30 minutes after dosing
Protocol: To assess the effectiveness of representative compounds of the invention against acute model inflammatory pain, animals were tested in an acute model of carrageenan-induced thermal hyperalgesia (see for example, Honore, et al. Behavioural Brain Research 167 (2006) 355-364; Porreca, et al. Journal of Pharmacology and Experimental Therapeutics (2006) vol. 318 pp. 195-205). Carrageenan was injected into the test paw of the animal, and after 90 minutes, the test drug was administered by intraperitoneal dosing. The effect on thermal hyperalgesia was assessed in a hotbox assay which was done 30 minutes after the intraperitoneal dosing of the test drug, and the MPE (maximal percent effect) reported by comparison to the control paw (not injected with carrageenan), according to 100 times the withdrawal latency of the carrageenan injected paw (in seconds) divided by the withdrawal latency of the control (not injected with carrageenan) paw.

SMILES	MPE ([1]; 30 micromole/kg i.p.) [%]	MPE ([1]; 100 micromole/kg i.p.) [%]	MPE ([2]; 30 micromole/kg i.p.) [%]	MPE ([2]; 100 micromole/kg i.p.) [%]	MPE ([2]; 300 micromole/kg i.p.) [%]	MPE ([2]; 500 micromole/kg i.p.) [%]	MPE ([3]; 30 micromole/kg i.p.) [%]	MPE ([3]; 100 micromole/kg i.p.) [%]	MPE ([4]; 30 micromole/kg i.p.) [%]	MPE ([4]; 100 micromole/kg i.p.) [%]	MPE ([1]; 300 micromole/kg i.p.) [%]	MPE ([2]; 250 micromole/kg i.p.) [%]	MPE ([3]; 250 micromole/kg i.p.) [%]	MPE ([3]; 500 micromole/kg i.p.) [%]	MPE ([4]; 300 micromole/kg i.p.) [%]
CN1CCN(c2cc(-c3ccc(C#N)cc3)nc(N)n2)CC1.O=C(O)/C=C\C(=O)O [Example 1, 4-(2-Amino-6-(4-methylpiperazin-1-yl)pyrimidin-4-yl)benzonitrile, maleate]	42	63	14	44	77	97	31	65	36	100	–	–	–	–	–
CN1CCN(C(=O)c2cc3cc(Cl)ccc3[nH]2)CC1 [Example 3, reference compound]	55	–	–	16	–	94	–	–	23	49	71	50	46	79	96
CNC1CN(c2nc(N)nc3c2CCCc2ccccc2-3)C1 [Example 6, 4-(3-Methylamino-azetidin-1-yl)-6,7-dihydro-5H-benzo[6,7]cyclohepta[1,2-d]pyrimidin-2-ylamine]	35	49	–	36	78	–	21	69	–	41	–	–	–	–	–
